Data on one compound can be found in US5427999A, “Amine adducts as corrosion inhibitors” (Exxon Chemical Patents Inc., priority 1991, dated 1995).

The subject of assay [1] is Skeletonema costatum. As to conditions: normally a concentration of 1.3 mg/kg, 4320 min; cited from earlier work.
The subject of assay [2] is Skeletonema costatum. The assay is described as follows: Marine phytoplankton inhibition of growth rate. Format: cell-based, Skeletonema costatum (Greville) Cleve, Clone Skel-5. Particulars: 72 h, control compound, measured in this test, read-out: normal growth rate, measured in this test. As for the experimental part:
Growth inhibition tests have also been carried out to assess the impact of the compounds on the, marine algae Skeletonema Costatum. This is a test which is becoming required by some offshore authorities, and is therefore of particular interest when considering the practical applications of the compounds.
Test organisms: Skeletonema costatum (Greville) Cleve, Clone Skel-5.
Incubation: 3 days at 14° C., in light/darkness cycles of 14 hrs/10 hrs.
Test samples: Aliquots of each sample are weighed into phytoplankton medium and extracted; moderate shaking for 20 hrs at 14° C.
Control compound: Na-dodecyl-sulphate. Normally a concentration of 1.3 mg/kg gives 30 to 70% of normal growth rate. Measured in this test: 30% to 55%.
Results were calculated as the concentration of compound required to inhibit 50% growth of algae during three days of exposure, termed EC50, given in mg/kg (ppm). The interval EC20 to EC80 is also given.

On to `CCCCCCCCCCCCOS(=O)(=O)O` [Na-dodecyl-sulphate], for which the “normal growth rate, normally given by control compound” value with Skeletonema costatum [1] was 30 to 70%. The activity at 1.3 mg/kg in the assay with Skeletonema costatum [2] was 30 to 55%.
